Results from patent US20060252798A1, “Metal ion chelators and therapeutic use thereof” (priority 2003, published 2006).
“And” between values parts separate entries of the source, which are not always exact repeats. Equal entries are not always repeated. Where two headings read alike, the source gives them in different places. Each block holds one compound with its values, some of them ahead of it.

What was measured:
[1] = tested on: MCF-7 breast cancer cells; test: MTT cellular proliferation assay, MCF-7; type: cell-based, human
Protocol: […] […] […] After this incubation, 0.01 mL of MTT was added to each well and the plates incubated for 2 h at 37° C. The cells were then solubilised by adding 0.1 mL of 10% SDS-50% isobutanol in 0.01 M HCl and the plates then read at 570 nm on a scanning multiwell spectrophotometer (Titertek Multiscan; Beckman Instruments Inc, California). MTT colour formation was directly proportional to the number of viable cells.
(§1) Dp2mT served as a negative control.
(§2) Dp2mT served as a negative control as the methyl group at the 2-position hinders Fe-chelation.

[2] = tested on: Ndrg1; test: Ndrg1 expression in MCF-7 cells (Western blotting); type: cell-based, human; conditions: 25 μM, 24 h, MCF-7 cells (FIG. 16)
Protocol: FIG. 16. […] The expression of Ndrg1 and β-actin protein levels were assessed by Western blotting.
MCF-7 cells were incubated for 24 h with a range of metal ion chelators. […] Dp2mT was used as a negative control, […]

[3] = tested on: SK-N-MC neuroepithelioma cells; test: 3H-leucine incorporation by SK-N-MC cells; type: cell-based, human; conditions: 20 h incubation then 2 h label; Mean ± SD, 4 experiments
Protocol: (§3) After a 20 h incubation of the SK-N-MC cells with a selection of analogues, ^3H-thymidine, ^3H-leucine, or ^3H-uridine (1 μCi/ml) was added for 2 h at 37° C. The cells were detached from the 96 well plate using 1 mM EDTA in Ca(II)/Mg(II)-free PBS and collected and washed using a cell harvester (Tomtec Harvester 96, Linbrook, Queensland, Australia). Radioactivity was measured on a P-scintillation counter (LKB Wallace, Turku, Finland).

[4] = tested on: SK-N-MC neuroepithelioma cells; test: 3H-thymidine incorporation by SK-N-MC cells; type: cell-based, human; conditions: 20 h incubation then 2 h label; Mean ± SD, 4 experiments
Protocol: as §3

[5] = tested on: SK-N-MC neuroepithelioma cells; test: MTT cellular proliferation assay, SK-N-MC; type: cell-based, human
Protocol: […] […] After this incubation, 0.01 mL of MTT was added to each well and the plates incubated for 2 h at 37° C. The cells were then solubilised by adding 0.1 mL of 10% SDS-50% isobutanol in 0.01 M HCl and the plates then read at 570 nm on a scanning multiwell spectrophotometer (Titertek Multiscan; Beckman Instruments Inc, California). MTT colour formation was directly proportional to the number of viable cells.
The effect of the compounds on the proliferation of SK-N-MC neuroepithelioma cells was examined using the MTT assay (described above).
as §1

[6] = tested on: SK-N-MC neuroepithelioma cells; test: 3H-uridine incorporation by SK-N-MC cells; type: cell-based, human; conditions: 20 h incubation then 2 h label; Mean ± SD, 3 experiments
Protocol: as §3

[7] = tested on: GADD45 and WAF1 mRNA; test: Northern blot of WAF1 and GADD45 mRNA expression in SK-N-MC cells; type: cell-based, human; conditions: DFO 100 μM, other chelators 25 μM, 20 h at 37° C. (FIG. 7)
Protocol: FIG. 7. […] Northern blotting was performed using standard procedures (see Example 6).
Northern blot analysis was performed by isolating total RNA using the Total RNA Isolation Reagent (Advanced Biotechnologies Ltd, Surrey, United Kingdom). The membranes were hybridised with probes specific for human WAF1, GADD45, and β-actin. The WAF1 probe consisted of a 1 kb fragment from pSXV (ATCC; Cat. No. 79928). The GADD45 probe consisted of a 760 bp fragment from human GADD45 cDNA cloned into pHu145B2 (kindly supplied by Dr. Albert Fornace, National Cancer Institute, NIH, Maryland). The β-actin probe consisted of a 1.4 kb fragment from human β-actin cDNA cloned into pBluescript SK− (ATCC; Cat. No. 37997).

[8] = tested on: MRC-5 fibroblasts; test: MTT cellular proliferation assay, MRC-5 fibroblasts; type: cell-based, human
Protocol: (§4) The final concentration of the compounds was 0.39-50 μM. […] […] After this incubation, 0.01 mL of MTT was added to each well and the plates incubated for 2 h at 37° C. The cells were then solubilised by adding 0.1 mL of 10% SDS-50% isobutanol in 0.01 M HCl and the plates then read at 570 nm on a scanning multiwell spectrophotometer (Titertek Multiscan; Beckman Instruments Inc, California). MTT colour formation was directly proportional to the number of viable cells.
The MRC-5 cell type is a normal human lung fibroblast cell strain that is mortal and senesces after a number of passages in vitro. The SK-N-MC neuroepithelioma cell type is immortal.
as §1

[9] = tested on: SK-N-MC neuroepithelioma cells; test: 59Fe mobilization from prelabelled SK-N-MC neuroepithelioma cells; type: cell-based, human
Protocol: The effect of chelators on ^59Fe release from prelabelled cells was studied using standard procedures.^18 Cells were prelabelled with ^59Fe-transferrin (0.75 μM) for 3 h at 37° C. […] The overlying medium was then removed and placed into γ-counting tubes. The cells were removed from the petri dishes in 1 ml of BSS using a plastic spatula and transferred to a separate set of γ-counting tubes.
The ability of the compounds to mobilise ^59Fe from SK-N-MC neuroepithelioma cells was assessed after a 3 h labelling period with ^59Fe-Tf (0.75 μM) at 37° C. […]
DFO and 311 were used as internal standards.

[10] = tested on: SK-N-MC neuroepithelioma cells; test: 59Fe uptake from 59Fe-transferrin by SK-N-MC neuroepithelioma cells; type: cell-based, human
Protocol: The cells were then placed on ice and washed four times with ice-cold Hank's balanced salt solution (BSS) to remove non-specifically bound ^59Fe-Tf. Cells were then incubated with the general protease, pronase (1 mg/ml), for 30 min at 4° C. to remove membrane-bound ^59Fe and Tf.
PCTH was used as an internal control.

[11] = tested on: SK-Mel-28 melanoma cells; test: MTT cellular proliferation assay, SK-Mel-28; type: cell-based, human
Protocol: as §4, §1, §2

[12] = tested on: IMR-32 Neuroblastoma; test: MTT cellular proliferation assay, IMR-32; type: cell-based; conditions: Homo sapiens, IMR-32, 0-50 μM, 72 h, 1 experiment
Protocol: as §4
(§5) At the end of the incubation period, cell density was determined by the MTT assay (described above).

[13] = tested on: NCI H2452 mesothelioma; test: MTT cellular proliferation assay, NCI H2452; type: cell-based; conditions: Homo sapiens, NCI-H2452, 0-50 μM, 72 h, 3 experiments
Protocol: as §4, §5

[14] = tested on: DU 145 prostate cancer; test: MTT cellular proliferation assay, DU 145; type: cell-based; conditions: Homo sapiens, DU-145, 0-50 μM, 72 h, 2 experiments
Protocol: as §4, §5

[15] = tested on: HEP G2 Hepatoma; test: MTT cellular proliferation assay, HEP G2; type: cell-based; conditions: Homo sapiens, HepG2, 0-50 μM, 72 h, 1 experiment
Protocol: as §4, §5

[16] = tested on: H69AR lung cancer; test: MTT cellular proliferation assay, H69AR; type: cell-based; conditions: Homo sapiens, H69AR, 0-50 μM, 72 h, 1 experiment
Protocol: as §4, §5

[17] = Homo sapiens, MCF7, values given in Example 8 text, read-out: IC50, anti-proliferative activity in MCF-7 cells
[18] = Table 2, MTT assay, 90 h incubation, Mean ± SD, 4 experiments, read-out: IC50 Values of Chelators
[19] = Homo sapiens, MRC5, Example 4c, FIG. 6, read-out: IC50 values in fibroblasts
[20] = Homo sapiens, SK-N-MC, 90 h, Table 2, MTT assay, 90 h incubation, Mean ± SD, 4 experiments, read-out: IC50 Values of Chelators
[21] = Table 3, 72 h, MTT, mean ± SD, read-out: IC50 MCF-7 breast cancer
[22] = Table 3, 0-25 μM, 72 h, MTT, mean ± SD, read-out: IC50 SK-N-MC neuroepithelioma
[23] = Table 3, normal cells, 72 h, MTT, read-out: IC50 MRC-5 fibroblasts

IC50 [1, 17]: 180 µM
Compound: Cc1c(O)c(=O)ccn1C [L1, deferiprone]
up-regulation of Ndrg1 [2]: no effect

IC50 [5, 18]: 1 ± 1 µM
Compound: O=C(NN=C(c1ccccn1)c1ccccn1)c1cccc(Br)c1 [PKBBH, di-2-pyridylketone 3-bromobenzoyl hydrazone]
3H-Leucine Incorporation [3]: 8 ± 1 % Control
3H-Thymidine Incorporation [4]: 0.02 % Control and 0.02 ± 0.01 % Control
3H-Uridine Incorporation [6]: 3 ± 1 % Control
GADD45 and WAF1 mRNA expression [7]: pronounced effect
IC50 [8, 19]: 8 µM

IC50 [1, 17]: > 250 µM
Compound: O=C(O)CN(CCN(CC(=O)O)CC(=O)O)CC(=O)O [EDTA, ethylenediamine tetraacetic acid]
up-regulation of Ndrg1 [2]: no effect

IC50 [5, 18]: 3 ± 1 µM
Compound: O=C(NN=C(c1ccccn1)c1ccccn1)c1ccccc1 [PKBH, di-2-pyridylketone benzoyl hydrazone]
prevention of 59Fe uptake as a function of concentration ([10]; 0.5-50 μM, 3 h, PCTH internal control (FIG. 5B)): higher efficacy than the control PCTH
3H-Leucine Incorporation [3]: 21 ± 2 % Control
3H-Thymidine Incorporation [4]: 0.03 ± 0.01 % Control
59Fe mobilisation as a function of concentration ([9]; 0.5-50 μM, 3 h, PCTH internal control (FIG. 5A)): more effective than PCTH
3H-Uridine Incorporation [6]: 5 ± 1 % Control
GADD45 and WAF1 mRNA expression [7]: pronounced effect
IC50 [8, 19]: 11 µM

IC50 [5, 20]: > 50 µM
Compound: Nc1ccc(C(=O)NN=Cc2ccc3ccccc3n2)cc1 [QCAH, 2-quinolinecarboxaldehyde 4-aminobenzoyl hydrazone]
3H-Thymidine Incorporation [4]: 43 ± 2 % Control

IC50 ([11]; Homo sapiens, SK-MEL-28, 72 h, Table 3, mean ± SD): 0.35 ± 0.09 µM
IC50 [12]: 0.01 µM
IC50 ([1]; Homo sapiens, MCF7, 72 h, Table 3, 72 h, MTT, mean ± SD, read-out: IC50 MCF-7 breast cancer): 0.6 ± 0.2 µM
IC50 ([5]; Homo sapiens, SK-N-MC, 72 h, Table 3, 0-25 μM, 72 h, MTT, mean ± SD, read-out: IC50 SK-N-MC neuroepithelioma): 0.02 µM
IC50 [14]: 0.09 µM
IC50 [15]: 2.61 µM
IC50 [16]: 0.39 µM
Compound: COc1cccc2c1C(=O)c1c(O)c3c(c(O)c1C2=O)C[C@@](O)(C(=O)CO)C[C@@H]3O[C@H]1C[C@H](N)[C@H](O)[C@H](C)O1 [Dox, doxorubicin]
IC50 [13]: 0.17 µM

IC50 [5, 18]: 40 ± 12 µM
Compound: O=C(NN=C(c1ccccn1)c1ccccn1)c1cccc(Br)c1 [PCBBH, 2-pyridylketone 3-bromobenzoyl hydrazone]
GADD45 and WAF1 mRNA expression [7]: up-regulation

IC50 ([11]; Table 3, 72 h, mean ± SD): 1.4 ± 0.4 µM
IC50 [1, 21]: 0.9 ± 0.4 µM
IC50 [5, 22]: 0.8 ± 0.2 µM
Compound: O=C(NN=Cc1c(O)ccc2ccccc12)c1cccnc1 [311m, 2-hydroxy-1-naphthylaldehyde nicotinoyl hydrazone]
IC50 [8, 23]: > 25 µM

IC50 ([11]; Table 3, 72 h, mean ± SD): > 25 µM
IC50 [1, 21]: > 25 µM
IC50 [5, 22]: > 25 µM
Compound: CN(N=C(c1ccccn1)c1ccccn1)C(N)=S [Dp2mT, di-2-pyridylketone 2-methyl-3-thiosemicarbazone]
prevention of 59Fe uptake from 59Fe-Tf ([10]; 25 μM, 3 h at 37° C. (FIG. 11B)): little effect
up-regulation of Ndrg1 [2]: no effect
IC50 [8, 23]: > 25 µM

IC50 [5, 20]: 49 ± 3 µM
Compound: O=C(NN=Cc1ccc2ccccc2n1)c1cccc(Br)c1 [QCBBH, 2-quinolinecarboxaldehyde 3-bromobenzoyl hydrazone]
3H-Thymidine Incorporation [4]: 81 ± 10 % Control

Continued, compound first:

Compound: O=C(NN=C(c1ccccn1)c1ccccn1)c1ccccc1 [PCBH, 2-pyridylketone benzoyl hydrazone]
3H-Leucine Incorporation [3]: 30 ± 13 % Control
3H-Thymidine Incorporation [4]: 72 ± 16 % Control
IC50 [5, 18]: 46 ± 7 µM
3H-Uridine Incorporation [6]: 31 ± 9 % Control
GADD45 and WAF1 mRNA expression [7]: little effect

Compound: 2-pyridylketone 2-thiophenecarboxaldehyde hydrazone [PCTH]
3H-Leucine Incorporation [3]: 21 ± 6 % Control
3H-Thymidine Incorporation [4]: 64 ± 14 % Control
cellular 59Fe released ([9]; chelator 1 μM, 3 h reincubation at 37° C. (FIG. 5A)): 10%
IC50 [5, 18]: 48 ± 4 µM
3H-Uridine Incorporation [6]: 43 ± 2 % Control

Compound: 2-quinolinecarboxaldehyde 2-thiophenecarboxaldehyde hydrazone [QCTH]
3H-Thymidine Incorporation [4]: 83 ± 6 % Control
IC50 [5, 18]: > 50 µM

Compound: O=C(NN=Cc1ccc2ccccc2n1)c1ccncc1 [QCIH, 2-quinolinecarboxaldehyde isonicotinoyl hydrazone]
3H-Thymidine Incorporation [4]: 77 ± 9.5 % Control
59Fe mobilisation from prelabelled cells ([9]; DFO 100 μM, other chelators 50 μM, 3 h (FIG. 3)): comparable cellular ^59Fe mobilisation to PCIH
IC50 [5, 20]: 49 ± 3 µM

Compound: CC(C)(S)[C@@H](N)C(=O)O [penicillamine]
up-regulation of Ndrg1 [2]: no effect

Compound: O=C(NN=Cc1ccc2ccccc2n1)c1ccc(O)cc1 [QCHH, 2-quinolinecarboxaldehyde 4-hydroxybenzoyl hydrazone]
3H-Thymidine Incorporation [4]: 41 ± 2 % Control
IC50 [5, 20]: > 50 µM

Compound: c1ccc(-c2ccccn2)nc1 [dipyridyl]
IC50 ([1]; Homo sapiens, MCF7, read-out: IC50, anti-proliferative activity in MCF-7 cells): > 250 µM
up-regulation of Ndrg1 [2]: no effect

Compound: O=C(NN=Cc1ccc2ccccc2n1)c1ccccc1 [QCBH, 2-quinolinecarboxaldehyde benzoyl hydrazone]
3H-Thymidine Incorporation [4]: 64 ± 5 % Control
IC50 [5, 20]: 50 ± 1 µM
